Five molecules from patent US9850283B2, “Macrocyclic inhibitors of the PD-1/PD-L1 and CD80(B7-1)/PD-L1 protein/protein interactions” (BRISTOL-MYERS SQUIBB COMPANY, priority 2013, dated 2017) can be followed below.

One experiment deals with T1, Human PD-L1/PD-1 (Homo sapiens, UniProt Q9NZQ7).
T1 construct: made in house; host or cells: HEK293T
In words: HTRF PD-1-Ig/PD-L1-His binding assay (human PD-L1). The note with it: cluster symbol; read-out: HTRF IC50 cluster. The method, boiled down: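 Soluble Fc-fused PD-1 and His-tagged PD-L1 (truncated before the transmembrane region) were combined in dPBS with 0.1% (w/v) BSA and 0.05% (v/v) Tween-20. Binding was read by HTRF using europium cryptate anti-Ig antibody (1 nM final) and APC anti-His antibody (20 nM final).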
For orientation: Time-resolved FRET reads energy transfer from a long-lived donor to a nearby acceptor.

Experiment [1] has as its target T2, LK35.2-hPD-L1 cells / PE-labeled PD-1-Ig (Homo sapiens, UniProt Q9NZQ7).
T2 construct: expressed in transfected cells; host or cells: LK35.2 mouse B cell line
In words: LK35.2-hPD-L1 cell binding high-content screening assay. The note with it: cell binding assay, cell line not given; cluster symbol; read-out: CBA IC50 cluster. The class given is cell-based. The gist of the method: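 Using overnight-cultured LK35.2-hPD-L1 mouse B cells, compound was co-incubated with phycoerythrin-tagged human PD-1-Ig (final 1 nM) at 37 °C for one hour. Unbound label was removed by triple dPBS washing prior to high-content image acquisition and analysis.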

Positions of bridges follow the written chain, without caps; N, C: chain ends. Non-standard residues stand in square brackets, D forms with d. Residues, ends and D or L forms follow the SMILES beside them. Hyp = O=C(O)[C@@H]1C[C@@H](O)CN1; NMeNle = CCCC[C@H](NC)C(=O)O; NMeA = CN[C@@H](C)C(=O)O; Orn = NCCC[C@H](N)C(=O)O; Dab = NCC[C@H](N)C(=O)O; Sar = CNCC(=O)O

T2 sequence (Q9NZQ7 19-290): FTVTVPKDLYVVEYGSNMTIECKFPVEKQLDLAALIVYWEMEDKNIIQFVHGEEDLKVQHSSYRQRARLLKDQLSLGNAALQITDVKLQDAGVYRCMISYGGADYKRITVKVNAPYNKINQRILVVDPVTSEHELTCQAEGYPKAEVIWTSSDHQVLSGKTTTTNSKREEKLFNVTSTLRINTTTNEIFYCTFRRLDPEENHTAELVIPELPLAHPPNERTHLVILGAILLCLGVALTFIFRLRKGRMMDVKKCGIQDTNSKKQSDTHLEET
T1 sequence (Q9NZQ7 with tags, fused parts or gaps): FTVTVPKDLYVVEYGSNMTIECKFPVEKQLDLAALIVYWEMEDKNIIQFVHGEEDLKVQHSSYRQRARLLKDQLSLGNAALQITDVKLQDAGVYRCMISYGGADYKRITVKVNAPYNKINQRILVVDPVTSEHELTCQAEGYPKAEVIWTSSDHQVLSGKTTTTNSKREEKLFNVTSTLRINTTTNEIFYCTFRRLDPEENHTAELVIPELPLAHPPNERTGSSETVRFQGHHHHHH

What is called IC50 is the concentration needed to halve the response being measured. Regarding `CCCC[C@H]1C(=O)N(C)[C@@H](CCCC)C(=O)N[C@@H]([C@@H](C)O)C(=O)N[C@H](C(=O)NCC(N)=O)CSCC(=O)N[C@@H](Cc2ccccc2)C(=O)N(C)[C@@H](C)C(=O)N[C@@H](CC(N)=O)C(=O)N2CCC[C@H]2C(=O)N[C@@H](Cc2cnc[nH]2)C(=O)N[C@@H](CC(C)C)C(=O)N(C)CC(=O)N[C@@H](Cc2c[nH]c3ccccc23)C(=O)N[C@@H](CO)C(=O)N[C@@H](Cc2c[nH]c3ccccc23)C(=O)N1C` [Example 5021] ({CH2CO}-F[NMeA]NPHL[Sar]WSW[NMeNle][NMeNle]TCG-NH2; thioether N-14), the IC50 is above 30.5 nM at Human PD-L1/PD-1 and above 74.3 nM in experiment [1].

Consider `CCCC[C@H]1C(=O)N(C)[C@@H](CCCC)C(=O)N[C@@H](CCCNC(=N)N)C(=O)N[C@H](C(=O)NCC(N)=O)CSCC(=O)N[C@@H](Cc2ccc(O)cc2)C(=O)N(C)[C@@H](C)C(=O)N[C@@H](CC(N)=O)C(=O)N2CCC[C@H]2C(=O)N[C@@H](Cc2cnc[nH]2)C(=O)N[C@@H](CCN)C(=O)N2C[C@H](O)C[C@H]2C(=O)N[C@@H](Cc2c[nH]c3ccccc23)C(=O)N[C@@H](CO)C(=O)N[C@@H](Cc2c[nH]c3ccccc23)C(=O)N1C` [Example 5022] ({CH2CO}-Y[NMeA]NPH[Dab][Hyp]WSW[NMeNle][NMeNle]RCG-NH2; thioether N-14), for which the IC50 at Human PD-L1/PD-1 was in the range of 6.76 to 30.3 nM; in experiment [1] it was 0.158 to 4.71 nM.

`CCCC[C@H]1C(=O)N(C)[C@@H](CCCC)C(=O)N[C@@H](CCCNC(=N)N)C(=O)N[C@H](C(=O)NCC(N)=O)CSCC(=O)N[C@@H](Cc2ccc(O)cc2)C(=O)N(C)[C@@H](C)C(=O)N[C@@H](CC(N)=O)C(=O)N2CCC[C@H]2C(=O)N[C@@H](Cc2cnc[nH]2)C(=O)N[C@@H](CCCN)C(=O)N2C[C@H](O)C[C@H]2C(=O)N[C@@H](Cc2c[nH]c3ccccc23)C(=O)N[C@@H](CO)C(=O)N[C@@H](Cc2c[nH]c3ccccc23)C(=O)N1C` [Example 5023] ({CH2CO}-Y[NMeA]NPH[Orn][Hyp]WSW[NMeNle][NMeNle]RCG-NH2; thioether N-14): the IC50 is 6.76 to 30.3 nM at Human PD-L1/PD-1 and 4.78 to 72.9 nM in experiment [1].

Consider `CCCC[C@H]1C(=O)N(C)[C@@H](CCCC)C(=O)N[C@@H](CCCNC(=N)N)C(=O)N[C@H](C(=O)NCC(N)=O)CSCC(=O)N[C@@H](Cc2ccc(O)cc2)C(=O)N(C)[C@@H](C)C(=O)N[C@@H](CC(N)=O)C(=O)N2CCC[C@H]2C(=O)N[C@@H](Cc2cnc[nH]2)C(=O)N[C@@H](CCCCN)C(=O)N2C[C@H](O)C[C@H]2C(=O)N[C@@H](Cc2c[nH]c3ccccc23)C(=O)N[C@@H](CO)C(=O)N[C@@H](Cc2c[nH]c3ccccc23)C(=O)N1C` [Example 5024] ({CH2CO}-Y[NMeA]NPHK[Hyp]WSW[NMeNle][NMeNle]RCG-NH2; thioether N-14), for which the IC50 at Human PD-L1/PD-1 fell in the range of 0.385 to 6.74 nM; in experiment [1] it was 0.158 to 4.71 nM.

With `CCCC[C@H]1C(=O)N(C)CC(=O)N[C@@H](CCCNC(=N)N)C(=O)N[C@H](C(=O)NCC(N)=O)CSCC(=O)N[C@@H](Cc2ccccc2)C(=O)N(C)[C@@H](C)C(=O)N[C@@H](CC(N)=O)C(=O)N2CCC[C@H]2C(=O)N[C@@H](Cc2cnc[nH]2)C(=O)N[C@@H](CC(C)C)C(=O)N(C)CC(=O)N[C@@H](Cc2c[nH]c3ccccc23)C(=O)N[C@@H](CO)C(=O)N[C@@H](Cc2c[nH]c3ccccc23)C(=O)N1C` [Example 5027] (HELM PEPTIDE1{[O=C(C[*:3])[*:2]].F.[meA].N.P.H.L.[Sar].W.S.W.[CCCC[C@@H](C(=O)[*:2])N(C)[*:1]].[Sar].R.C.G.[am]}$PEPTIDE1,PEPTIDE1,1:R3-15:R3$$$V2.0), the IC50 at Human PD-L1/PD-1 is above 30.5 nM; in experiment [1], above 74.3 nM.
